From BindingDB's records for doi:10.7270/Q2XS5SSN (Nmmlsc, 2010)

What follows are compounds tested against T1, GTPase KRas [1-37] (Homo sapiens, UniProt G3V5T7) (assay: inhibitors of GTP binding to wildtype Ras, dose response, biochemical, multiplex bead flow cytometry (AID 1335)).
T1 construct: 1-37
T1 sequence (G3V5T7 whole entry): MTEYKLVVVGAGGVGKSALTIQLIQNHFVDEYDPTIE
In the case of `Cc1ccc(-n2c(=O)cc(N3CCc4ccccc4C3)[nH]c2=O)cc1`, the EC50 is reported as 43.7 µM. `Cc1cc(C(=O)Oc2ccccc2C(=O)O)c(C)o1` [2-(2,5-dimethyl-3-furoyl)oxybenzoic acid] showed an EC50 of 3.66 µM. For `O=C(O)c1ccccc1OCc1ccccc1Br` [2-(2-bromobenzyl)oxybenzoic acid], the EC50 was 0.109 µM. Work on `CC1(C)Cc2c(sc(NC(=S)NC(=O)c3ccccc3)c2C(=O)O)CO1` [2-(benzoylcarbamothioylamino)-5,5-dimethyl-4,7-dihydrothieno[2,3-c]pyran-3-carboxylic acid] yielded an EC50 of 0.0993 µM. `CCn1cc(C=C2C(=O)c3ccccc3C2=O)c2ccccc21` [2-[(1-ethyl-3-indolyl)methylidene]indene-1,3-dione] showed an EC50 of 7.96 µM. With `Cc1cc(NC(=O)CSc2nc(O)c(C#N)c(-c3ccccc3)n2)no1` [2-[(5-cyano-4-oxidanylidene-6-phenyl-1H-pyrimidin-2-yl)sulfanyl]-N-(5-methyl-1,2-oxazol-3-yl)ethanamide] the EC50 was 8.92 µM. `Cc1cc(C(=O)O)sc1CNCc1ccccc1Cl` [5-[[(2-chlorobenzyl)amino]methyl]-4-methyl-2-thenoic acid] showed an EC50 of 0.0782 µM. `CCN1C(c2ccccc2)=C(c2ccccc2)S/C1=C/C=C1\SC(=S)N(C)C1=O` [(5Z)-5-[(2E)-2-(3-ethyl-4,5-diphenyl-1,3-thiazol-2-ylidene)ethylidene]-3-methyl-2-sulfanylidene-1,3-thiazolidin-4-one] gave an EC50 of 33.6 µM. For `O=C(O)/C=C/c1cn(Cc2ccccc2)nc1-c1cccs1` [(E)-3-(1-benzyl-3-thiophen-2-ylpyrazol-4-yl)prop-2-enoic acid], the EC50 was 4.03 µM. `CCS(=O)(=O)N1N=C(c2cccc(NS(C)(=O)=O)c2)CC1c1ccc(C)cc1` (stereo not given) [MLS000680398] showed an EC50 of 2.61 µM.
